From patent publication US10106532B2, “Inhibitors of beta-hydroxylase for treatment of cancer” (MIDWESTERN UNIVERSITY, priority 2012, dated 2018)
“Also recorded” adds a separate entry of the source.

How the values were obtained:
FOCUS cells = assay: anchorage independent growth in soft agar; assay type: cell-based, human; conditions: 3 weeks of culture
Protocol: The effect of MO-1-1100 on anchorage independent growth in soft agar was evaluated. The ability of forming colonosphere in soft agar is considered to be a rigid test for tumorigenic potential. ASPH expression results in cells acquiring the ability to form colonospheres in soft agar. […] In order to evaluate the effect of ASPH inhibitor for anchorage independent colony formation, FOCUS cells were incubated in soft agar with or without this ASPH enzymatic inhibitor. After 3 weeks incubation, MO-1-1100 reduced colonosphere formation of FOCUS cells (FIG. 9A). […] This assay is a standard method to monitor malignant growth that reflects the ability to form tumors that grow aggressively in vivo.

Hep3B = assay: cell viability; assay type: cell-based, human; conditions: 5 μM
ASPH = molecular target: T1, ASPH (Homo sapiens, UniProt Q12797); assay: high throughput 14CO2 capture enzymatic assay for ASPH β-hydroxylase activity (ASPH mAb capture from lysates of treated FOCUS cells); assay type: biochemical; design: endogenous in cells; host or cells: FOCUS cells (human hepatocellular carcinoma line)
T1 sequence (Q12797 1-758): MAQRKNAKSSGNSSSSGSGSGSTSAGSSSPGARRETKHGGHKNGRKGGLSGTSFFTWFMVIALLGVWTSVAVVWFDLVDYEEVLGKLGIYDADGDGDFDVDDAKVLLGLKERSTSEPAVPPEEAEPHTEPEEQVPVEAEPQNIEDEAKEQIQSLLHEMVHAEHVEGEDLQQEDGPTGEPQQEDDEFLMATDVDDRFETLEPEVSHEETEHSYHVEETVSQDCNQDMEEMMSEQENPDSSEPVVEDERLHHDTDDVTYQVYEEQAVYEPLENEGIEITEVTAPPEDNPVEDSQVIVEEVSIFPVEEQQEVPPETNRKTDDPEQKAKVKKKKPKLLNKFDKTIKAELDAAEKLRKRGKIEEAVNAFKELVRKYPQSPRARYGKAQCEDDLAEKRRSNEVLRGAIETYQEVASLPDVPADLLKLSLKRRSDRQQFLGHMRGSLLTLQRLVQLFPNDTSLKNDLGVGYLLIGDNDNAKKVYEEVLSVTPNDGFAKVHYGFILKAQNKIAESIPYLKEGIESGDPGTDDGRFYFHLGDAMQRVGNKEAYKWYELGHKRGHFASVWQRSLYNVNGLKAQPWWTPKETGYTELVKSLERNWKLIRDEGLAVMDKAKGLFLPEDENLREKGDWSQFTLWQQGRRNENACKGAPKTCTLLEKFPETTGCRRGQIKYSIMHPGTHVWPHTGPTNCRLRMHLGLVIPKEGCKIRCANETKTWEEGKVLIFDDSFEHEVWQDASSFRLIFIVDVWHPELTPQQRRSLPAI
Protocol: In yet another aspect, the disclosure provides a method determining ASPH activity by contacting an EGF-like domain peptide with a detectably-labeled α-ketoglutarate and ASPH enzyme and measuring β-hydroxylase activity. In one embodiment, said α-ketoglutarate is ^14C-labelled, and wherein β-hydroxylase activity is measured by detecting liberated ^14CO2. In one embodiment, said liberated ^14CO2 is captured on a filter and radioactivity quantified. […] In one embodiment, said EGF-like domain comprises the amino acid sequence of […] (SEQ ID NO:1). In one embodiment, said EGF-like domain peptide comprises the consensus sequence of CDXXXCXXKXGNGXCDXXCNNAACXXDGXDC (SEQ ID NO: 2).
FIG. 3A is a diagram of the biochemical reaction catalyzed by ASPH derived from PC cell lysates. FIG. 3B is a cartoon illustrating the read-out to quantify ASPH activity in PC cells and tumors. FIG. 3C is an image of membrane was obtained by a phosphor-imager after a 16 hour exposure of the trapping filter to a phospho-screen. FIG. 3D is a bar graph showing intensities were calculated by Image J software and compared to a DMSO control. Vertical bars represent standard deviation. These figures show methods of measurement and data relating to ASPH catalytic activity.
EGF and EGF-like domains are well known in the art and generally include six cysteine residues which have been shown (in EGF) to be involved in disulfide bonds. The main structure is a two-stranded beta-sheet followed by a loop to a C-terminal short two-stranded sheet. Subdomains between the conserved cysteines vary in length. Examples include those described in Davis, C G, 1990, New Biol. 2(5):410-9; Blomquist et al., 1984, Proc Natl Acad Sci USA. 81(23):7363-7; Hommel et al., […], J Mol Biol. 227(1):271-82; Doolittle et al., 1984, Nature. 307(5951):558-60; Appella et al., 1988, FEBS Lett. 231(1):1-4; Sorkin A., 2001, Biochem Soc Trans. August; 29(Pt 4):480-4; each of which is hereby incorporated by reference). FIGS. 3A-C represents the strategy for development and characterization of the performance of an assay to measure ASPH enzymatic activity. FIG. 3A describes the biochemical reaction catalyzed by ASPH. FIG. 3B depicts the read-out of the assay. Protein lysates were extracted from FOCUS cells (high level of ASPH cell surface expression) treated with 1-10 μM of each parent compound for 24 hours. The lysates were added into 96 well-plates coated with ASPH monoclonal antibodies (mAbs) to add an antigen specific (ASPH) capture step to the assay design. After incubation and washing, only ASPH is captured on each well. The reaction is carried out with 60 μM of an EGF domain containing 39AA peptide, 100 μM FeCl2 and 40 μM ^14C labeled α-ketoglutarate were added into each well. The ^14CO2 was captured on a glass fiber membrane soaked in Ca(OH)2. […] The compound was further characterized for clinical use as an anti-tumor agent for PC and HCC and other ASPH-expressing tumors.

HepG2 = assay: cell viability; assay type: cell-based, human; conditions: 5 μM
NIH-3T3 cells = assay: MTT assay (cell proliferation, metabolic activity); assay type: cell-based, mouse
Protocol: A MTT assay was performed to evaluate the effect of MO-1-1100 on cell proliferation and viability. MTT is reduced to purple formazan in living cells. FOCUS cells were used as a high ASPH expressing human HCC cell line. […] The MTT assay measures cellular metabolic activity via NAD(P)H-dependent cellular oxidoreductase enzymes. […] In order to evaluate the effect of long-term exposure of MO-1-1100, the colony formation assay (an assay of malignant potential and phenotype) in which cells were treated with inhibitor for 3 weeks was performed.

## NC1=C(OS(=O)(=O)Cc2ccccc2)C(=O)C(c2ccc(Cl)cc2)O1 (racemic) [MO-1-1100]
FOCUS cells
  number and size of colonies in soft agar: dose-dependent and highly significant reduction; also recorded: reduces
Hep3B
  cell viability, inhibition rate: 60%
ASPH
  identified as hits (screening for inhibition of β-hydroxylase activity): identified as hits
ASPH; 1 μM
  β-hydroxylase activity: substantially inhibits
ASPH; concentration not given
  ASPH enzymatic inhibitory activity (β-hydroxylase): inhibit
HepG2
  cell viability, inhibition rate: 59%
NIH-3T3 cells; FOCUS (express ASPH) versus NIH-3T3 (do not express ASPH)
  specificity for the β-hydroxylase activity of ASPH: highly specific; also recorded: more highly specific
NIH-3T3 cells; NIH-3T3 cells not expressing ASPH
  OD value of MTT: no effect; also recorded: resistant
